Reference: ChEMBL document CHEMBL4507291 (2021)

Tests used:
[1] = biological target: T1, Muscarinic acetylcholine receptor M4 (Homo sapiens) (UniProt P08173); conditions: Compound concentration 10.0 uM
T1 sequence (whole entry): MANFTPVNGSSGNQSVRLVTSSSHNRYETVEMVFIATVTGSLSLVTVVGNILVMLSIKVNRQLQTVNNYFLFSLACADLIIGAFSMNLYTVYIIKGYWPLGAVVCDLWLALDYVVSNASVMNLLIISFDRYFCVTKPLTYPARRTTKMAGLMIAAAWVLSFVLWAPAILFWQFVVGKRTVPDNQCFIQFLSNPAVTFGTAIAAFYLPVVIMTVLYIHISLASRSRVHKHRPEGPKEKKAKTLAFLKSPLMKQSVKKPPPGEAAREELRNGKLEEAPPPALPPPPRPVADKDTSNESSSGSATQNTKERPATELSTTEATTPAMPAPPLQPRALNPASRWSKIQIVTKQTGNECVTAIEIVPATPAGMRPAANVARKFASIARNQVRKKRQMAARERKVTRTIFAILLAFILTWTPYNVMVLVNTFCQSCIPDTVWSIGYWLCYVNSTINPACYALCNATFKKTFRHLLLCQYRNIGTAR

[2] = biological target: T2, Serine/threonine-protein kinase TAO2 (Homo sapiens) (UniProt Q9UL54)
T2 sequence (whole entry): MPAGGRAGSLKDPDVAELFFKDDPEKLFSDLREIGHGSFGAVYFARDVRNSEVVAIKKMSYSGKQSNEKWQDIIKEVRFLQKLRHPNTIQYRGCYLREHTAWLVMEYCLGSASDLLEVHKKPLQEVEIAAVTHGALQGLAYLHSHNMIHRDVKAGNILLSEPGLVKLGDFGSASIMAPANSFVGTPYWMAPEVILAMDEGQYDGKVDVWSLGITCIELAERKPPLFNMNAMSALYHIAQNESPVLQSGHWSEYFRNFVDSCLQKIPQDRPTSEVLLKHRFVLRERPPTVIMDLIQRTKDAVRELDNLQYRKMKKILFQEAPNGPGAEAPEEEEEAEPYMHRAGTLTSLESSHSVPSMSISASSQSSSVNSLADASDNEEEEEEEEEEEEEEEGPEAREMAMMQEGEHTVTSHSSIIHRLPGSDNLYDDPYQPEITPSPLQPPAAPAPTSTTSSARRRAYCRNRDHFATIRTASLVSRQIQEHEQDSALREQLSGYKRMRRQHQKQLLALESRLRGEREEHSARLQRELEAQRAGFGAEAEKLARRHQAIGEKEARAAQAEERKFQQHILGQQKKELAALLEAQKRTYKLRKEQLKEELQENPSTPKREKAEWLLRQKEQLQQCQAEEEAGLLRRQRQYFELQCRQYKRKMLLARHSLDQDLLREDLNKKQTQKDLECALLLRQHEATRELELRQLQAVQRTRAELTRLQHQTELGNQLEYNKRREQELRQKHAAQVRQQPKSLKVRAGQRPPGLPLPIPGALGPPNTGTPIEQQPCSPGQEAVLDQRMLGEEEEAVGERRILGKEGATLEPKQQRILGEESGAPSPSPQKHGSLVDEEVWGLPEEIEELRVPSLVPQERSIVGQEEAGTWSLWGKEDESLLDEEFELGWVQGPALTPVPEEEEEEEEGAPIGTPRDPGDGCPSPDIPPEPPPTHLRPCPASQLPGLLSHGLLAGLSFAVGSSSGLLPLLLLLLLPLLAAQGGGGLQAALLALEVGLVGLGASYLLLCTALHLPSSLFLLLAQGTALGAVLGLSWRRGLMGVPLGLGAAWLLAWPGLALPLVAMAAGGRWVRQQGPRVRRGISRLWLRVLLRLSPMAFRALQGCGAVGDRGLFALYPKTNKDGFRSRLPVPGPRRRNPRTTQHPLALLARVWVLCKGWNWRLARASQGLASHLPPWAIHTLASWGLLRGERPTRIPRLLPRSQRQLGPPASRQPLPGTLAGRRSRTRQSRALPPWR

[3] = biological target: T3, Serine/threonine-protein kinase TAO3 (Homo sapiens) (UniProt Q9H2K8)
T3 sequence (whole entry): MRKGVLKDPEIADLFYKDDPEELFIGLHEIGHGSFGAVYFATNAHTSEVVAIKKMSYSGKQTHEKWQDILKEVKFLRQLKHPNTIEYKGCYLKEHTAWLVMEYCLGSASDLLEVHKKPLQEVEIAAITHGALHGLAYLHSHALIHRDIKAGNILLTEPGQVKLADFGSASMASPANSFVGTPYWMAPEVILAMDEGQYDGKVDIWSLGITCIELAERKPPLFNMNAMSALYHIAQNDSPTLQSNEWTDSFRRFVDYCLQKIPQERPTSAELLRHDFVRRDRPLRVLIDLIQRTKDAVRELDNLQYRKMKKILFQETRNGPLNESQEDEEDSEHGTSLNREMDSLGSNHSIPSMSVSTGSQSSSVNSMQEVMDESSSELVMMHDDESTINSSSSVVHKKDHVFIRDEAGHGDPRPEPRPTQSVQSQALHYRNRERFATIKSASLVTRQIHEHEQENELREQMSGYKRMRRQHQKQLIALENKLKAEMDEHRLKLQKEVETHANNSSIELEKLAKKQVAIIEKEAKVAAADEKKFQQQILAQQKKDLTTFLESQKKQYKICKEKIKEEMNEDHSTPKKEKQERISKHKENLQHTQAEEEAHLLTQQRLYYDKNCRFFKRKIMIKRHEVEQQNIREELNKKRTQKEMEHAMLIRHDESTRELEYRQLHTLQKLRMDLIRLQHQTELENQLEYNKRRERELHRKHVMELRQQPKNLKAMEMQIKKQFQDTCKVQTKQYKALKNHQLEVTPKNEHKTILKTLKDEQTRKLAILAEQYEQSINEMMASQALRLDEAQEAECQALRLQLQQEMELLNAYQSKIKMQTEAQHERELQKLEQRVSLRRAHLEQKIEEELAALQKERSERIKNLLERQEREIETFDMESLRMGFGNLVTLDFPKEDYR

[4] = biological target: Phosphatidylinositol 3-kinase C2 domain-containing subunit gamma (Homo sapiens) (UniProt O75747)
[5] = biological target: Rho-associated protein kinase 2 (Homo sapiens) (UniProt O75116)
[6] = biological target: Macrophage colony-stimulating factor 1 receptor (Homo sapiens) (UniProt P07333)
[7] = Compound concentration 1000.0 nM
[8] = Compound concentration 100.0 nM

Sequence of Rho-associated protein kinase 2 (Homo sapiens) (O75116 whole entry, looked up): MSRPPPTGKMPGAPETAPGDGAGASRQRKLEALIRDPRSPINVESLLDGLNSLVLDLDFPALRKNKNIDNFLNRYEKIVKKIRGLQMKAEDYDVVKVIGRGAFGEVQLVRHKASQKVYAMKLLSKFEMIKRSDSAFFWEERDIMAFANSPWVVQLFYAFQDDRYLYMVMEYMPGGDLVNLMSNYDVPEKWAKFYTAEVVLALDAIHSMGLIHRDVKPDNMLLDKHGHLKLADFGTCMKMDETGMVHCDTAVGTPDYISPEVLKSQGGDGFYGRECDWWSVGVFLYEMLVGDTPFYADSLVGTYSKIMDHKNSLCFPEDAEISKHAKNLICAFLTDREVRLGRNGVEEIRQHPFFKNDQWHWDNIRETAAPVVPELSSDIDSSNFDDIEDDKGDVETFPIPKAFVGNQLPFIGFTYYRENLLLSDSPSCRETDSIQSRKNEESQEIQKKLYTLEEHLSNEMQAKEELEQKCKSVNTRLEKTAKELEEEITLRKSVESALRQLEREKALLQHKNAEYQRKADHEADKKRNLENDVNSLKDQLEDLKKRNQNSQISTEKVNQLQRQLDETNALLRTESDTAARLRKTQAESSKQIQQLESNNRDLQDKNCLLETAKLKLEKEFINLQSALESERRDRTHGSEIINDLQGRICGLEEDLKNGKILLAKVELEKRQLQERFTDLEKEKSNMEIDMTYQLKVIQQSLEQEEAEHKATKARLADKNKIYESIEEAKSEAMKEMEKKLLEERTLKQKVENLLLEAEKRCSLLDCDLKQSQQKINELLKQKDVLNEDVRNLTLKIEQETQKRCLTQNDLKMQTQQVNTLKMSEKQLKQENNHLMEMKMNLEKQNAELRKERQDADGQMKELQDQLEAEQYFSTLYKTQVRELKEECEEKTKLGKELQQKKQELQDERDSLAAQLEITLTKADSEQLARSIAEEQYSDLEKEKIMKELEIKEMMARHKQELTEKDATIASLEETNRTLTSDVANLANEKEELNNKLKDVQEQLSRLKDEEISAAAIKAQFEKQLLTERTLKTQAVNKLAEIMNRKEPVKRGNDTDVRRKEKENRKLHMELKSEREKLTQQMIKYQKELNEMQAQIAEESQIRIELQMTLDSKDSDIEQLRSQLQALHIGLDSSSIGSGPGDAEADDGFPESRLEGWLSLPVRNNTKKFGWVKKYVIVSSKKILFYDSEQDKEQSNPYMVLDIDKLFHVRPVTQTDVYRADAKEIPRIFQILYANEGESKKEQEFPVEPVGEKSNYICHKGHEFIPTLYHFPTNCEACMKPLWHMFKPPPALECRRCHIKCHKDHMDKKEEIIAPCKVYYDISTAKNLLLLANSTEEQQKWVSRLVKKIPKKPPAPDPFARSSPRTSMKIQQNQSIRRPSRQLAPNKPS
Sequence of Phosphatidylinositol 3-kinase C2 domain-containing subunit gamma (Homo sapiens) (O75747 whole entry, the tested form may be a part): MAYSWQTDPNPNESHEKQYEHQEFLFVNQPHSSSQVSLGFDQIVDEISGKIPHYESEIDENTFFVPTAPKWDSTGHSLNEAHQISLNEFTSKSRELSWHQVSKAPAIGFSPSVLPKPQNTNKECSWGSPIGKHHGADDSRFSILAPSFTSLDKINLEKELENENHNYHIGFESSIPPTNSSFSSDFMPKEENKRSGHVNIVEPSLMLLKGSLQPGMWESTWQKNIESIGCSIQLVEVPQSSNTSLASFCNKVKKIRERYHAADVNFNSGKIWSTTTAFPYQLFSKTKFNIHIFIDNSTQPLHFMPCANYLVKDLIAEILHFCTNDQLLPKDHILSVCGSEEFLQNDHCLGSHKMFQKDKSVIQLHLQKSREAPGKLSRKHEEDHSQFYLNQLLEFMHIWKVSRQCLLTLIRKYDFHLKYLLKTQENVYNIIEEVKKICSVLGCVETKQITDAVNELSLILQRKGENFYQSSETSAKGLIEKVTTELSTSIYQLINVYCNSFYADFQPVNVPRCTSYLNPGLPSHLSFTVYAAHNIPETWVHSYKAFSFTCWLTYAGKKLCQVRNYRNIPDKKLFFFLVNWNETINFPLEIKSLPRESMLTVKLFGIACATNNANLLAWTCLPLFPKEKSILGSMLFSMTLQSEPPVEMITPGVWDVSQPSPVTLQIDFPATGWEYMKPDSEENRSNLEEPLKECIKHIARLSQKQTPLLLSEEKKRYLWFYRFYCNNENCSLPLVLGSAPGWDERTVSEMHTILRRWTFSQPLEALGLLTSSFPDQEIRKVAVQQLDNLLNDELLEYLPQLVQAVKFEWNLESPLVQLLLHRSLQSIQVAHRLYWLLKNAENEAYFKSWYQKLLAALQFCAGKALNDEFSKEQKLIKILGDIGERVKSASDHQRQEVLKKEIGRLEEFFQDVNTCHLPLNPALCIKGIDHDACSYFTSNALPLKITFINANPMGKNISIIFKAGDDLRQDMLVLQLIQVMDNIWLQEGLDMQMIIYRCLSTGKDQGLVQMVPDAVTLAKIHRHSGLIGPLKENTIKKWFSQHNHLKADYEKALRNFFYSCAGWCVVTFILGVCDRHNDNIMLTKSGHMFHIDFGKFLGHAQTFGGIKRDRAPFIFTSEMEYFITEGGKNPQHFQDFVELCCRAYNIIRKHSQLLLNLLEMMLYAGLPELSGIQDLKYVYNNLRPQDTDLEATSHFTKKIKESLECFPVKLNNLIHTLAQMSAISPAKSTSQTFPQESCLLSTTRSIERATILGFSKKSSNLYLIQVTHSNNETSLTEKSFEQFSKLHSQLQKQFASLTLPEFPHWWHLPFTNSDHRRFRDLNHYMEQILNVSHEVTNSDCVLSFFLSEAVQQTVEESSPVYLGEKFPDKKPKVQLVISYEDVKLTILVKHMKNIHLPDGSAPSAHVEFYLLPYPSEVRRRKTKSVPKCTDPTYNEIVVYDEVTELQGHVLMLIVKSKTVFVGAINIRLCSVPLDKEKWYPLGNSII
Sequence of Macrophage colony-stimulating factor 1 receptor (Homo sapiens) (P07333 whole entry): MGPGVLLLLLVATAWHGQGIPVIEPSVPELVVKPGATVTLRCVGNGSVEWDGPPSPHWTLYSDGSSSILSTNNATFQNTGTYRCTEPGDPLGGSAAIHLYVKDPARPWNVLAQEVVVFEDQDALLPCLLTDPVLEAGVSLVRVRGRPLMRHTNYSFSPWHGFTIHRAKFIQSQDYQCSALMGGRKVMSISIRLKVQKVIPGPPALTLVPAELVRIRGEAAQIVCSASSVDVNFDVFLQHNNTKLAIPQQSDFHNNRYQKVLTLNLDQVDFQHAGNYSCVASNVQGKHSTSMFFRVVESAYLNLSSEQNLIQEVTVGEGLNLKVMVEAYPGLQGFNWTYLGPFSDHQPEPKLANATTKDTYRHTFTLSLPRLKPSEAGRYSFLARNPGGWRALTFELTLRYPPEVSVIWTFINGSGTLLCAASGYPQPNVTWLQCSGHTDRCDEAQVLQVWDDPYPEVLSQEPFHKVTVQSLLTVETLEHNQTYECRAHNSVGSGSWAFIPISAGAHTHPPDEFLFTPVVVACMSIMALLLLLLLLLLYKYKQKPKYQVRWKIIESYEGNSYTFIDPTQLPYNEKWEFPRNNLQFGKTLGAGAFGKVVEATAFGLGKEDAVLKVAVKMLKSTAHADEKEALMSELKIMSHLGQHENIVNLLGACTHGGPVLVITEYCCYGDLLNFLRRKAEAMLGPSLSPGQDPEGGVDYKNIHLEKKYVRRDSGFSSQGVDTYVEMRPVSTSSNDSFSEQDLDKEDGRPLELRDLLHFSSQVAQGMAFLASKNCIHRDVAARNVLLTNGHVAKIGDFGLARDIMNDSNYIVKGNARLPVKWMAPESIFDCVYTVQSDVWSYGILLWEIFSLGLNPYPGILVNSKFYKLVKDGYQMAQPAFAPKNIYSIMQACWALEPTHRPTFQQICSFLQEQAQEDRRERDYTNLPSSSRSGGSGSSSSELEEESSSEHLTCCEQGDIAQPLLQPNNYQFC

SMILES | inhibition [1] [%] | residual activity [2, 7] [%] | residual activity [3, 7] [%] | residual activity [4, 7] [%] | residual activity [5, 7] [%] | residual activity [6, 7] [%] | residual activity [2, 8] [%] | residual activity [3, 8] [%] | residual activity [4, 8] [%] | residual activity [5, 8] [%] | residual activity [6, 8] [%]
C[C@@H]1CN(c2cc(-c3nn(C)c4ccc(OC5(C)CC5)cc34)ncn2)C[C@H](C)O1 [MLi-2-NC] | 10.6 | 80 | 35 | 100 | 97 | 55 | – | – | – | – | –
C[C@@H]1CN(c2cc(-c3n[nH]c4ccc(OC5(C)CC5)cc34)ncn2)C[C@H](C)O1 [MLi-2] | -4.79 | – | – | – | – | – | 73 | 69 | 69 | 89 | 84
